US12496301B2, “Use of androgen receptor degrader for the treatment of spinal and bulbar muscular atrophy” (Arvinas Operations, Inc., priority 2023, dated 2025)

Key:
polyQ-AR = experiment: Myotube high content imaging of polyQ-AR in myotubes that overexpress polyQ-AR; format: cell-based, human; conditions: 24 hours treatment, nuclear compartment
Protocol: Cells were maintained in skeletal growth medium (PromoCell #23160). Immortalized myoblasts harboring inducible human androgen receptor with 56 CAG repeats (hAR56Q) were constructed by lentiviral transduction with CMV-rtTA and TetO-AR56Q-T2A-Puromycin (Mamchaoui, K. et al. Skeletal Muscle 1, 34 (2011)).
On day 0, immortalized myoblasts with inducible polyQ-AR (described above in “Cell lines”) cells were seeded onto Geltrex-coated 96-well plates at a density of 4×10^6 cells per plate in myoblast basal media (Promocell C-23060) supplemented with 1% penicillin-streptomycin (Pen Strep) antibiotics. The plates were then incubated overnight at 37° C. in a 5% CO2 environment. Upon reaching 100% confluency (Day 1), the myoblast media were aspirated and replaced with myotube differentiation media (Promocell C-23061). The cells were cultured in this differentiation media for 6 days, with media changes occurring every three days.
On the sixth day of differentiation, the compounds and doxycycline ([…]) diluted in 100% dimethyl sulfoxide (DMSO) were added to the myotubes. The plate was then incubated for 24 hours at 37° C. in an incubator. On the following day (Day 7), the culture media was removed from the plates and replaced with 50 μL of 4% paraformaldehyde (PFA) prepared in 1× phosphate-buffered saline (PBS). The plates were incubated with PFA for 15 minutes, followed by three washes with PBS. Subsequently, the myotubes were permeabilized for 15 minutes using 0.5% Triton X-100 in 1×PBS and then blocked with 5% Bovine Serum Albumin (BSA) (Thermofisher, #37520) for one hour at room temperature. After blocking, the plates were incubated overnight at 4° C. with primary antibodies: a 1:100 diluted Androgen Receptor antibody (D6F11 Cell Signaling 5135S) and a 1:200 diluted Desmin antibody (Thermofisher, MA1-22150) in PBS containing 0.1% BSA. […] Degradation was quantified by determining the average intensity of AR within separate nuclear and cytoplasmic compartments in Desmin positive area (myotubes).

[1] = Efficacy in hAR100Q murine model of SBMA (body weight, grip strength, treadmill, survival); format: in vivo, mouse
Description: (§1) Male mice harboring approximately 73±14 copies of full-length human AR harboring 100 CAG repeats in exon 1 (hAR100Q) (“hAR100Q mice”) were used in this study. hAR100Q mice were obtained from mice (C57BL/6J background) expressing heterozygous human […] AR100Q (AR100Q+/−) under the control of the cytomegalovirus immediate-early enhancer and the chicken beta-actin (pCAGGS) promoter. These transgenic lines were maintained, and the colony expanded by breeding with C57BL/6J (Jackson Laboratory) wild-type (WT) mice.
(§2) A total of […] hAR100Q and 20 littermate controls were used for this study. Each genotype was divided into two groups of 10 (control vs Compound A) giving a total of four separate groups (WT control, WT Compound A, hAR100Q control, and hAR100Q Compound A). All mice were fed control chow beginning at 4 weeks of age. At 5 weeks of age, treated groups were switched to Compound A-formulated chow and the remaining mice were fed control chow. Body weights were recorded weekly starting at 5 weeks of age.
(§3) Compound A was formulated at 100 parts per million (ppm) Compound A in rodent chow (Purina #5015). This dose level (100 ppm) approximates a 15 mg/kg dose for a mouse that weighs 20 g and consumes 3 g of chow per day. For control chow, rodent chow (Purina #5015) was re-pelleted in an identical manner to the Compound A-formulated chow.
(§4) A grip strength apparatus was utilized to measure the force exerted by the forepaws only, or all four paws of mice once per week beginning at 7 weeks of age. The apparatus was placed on a sturdy flat lab bench and the apparatus's grid wire mesh was used for all four paws. Individual mice grasped a wire mesh (all four paws) and were gently pulled by the base of their tail to measure their maximum force exerted to maintain their grip. The grip strength assay was conducted 6 times per mouse, for all four paws.
(§5) A Touchscreen Treadmill was utilized to analyze length of time running at increasing speeds until exhaustion. Individual mice ran on a flat treadmill with a graded acceleration protocol consisting of 10 meters (m)/min. for the first 40 min., with the speed increasing thereafter by increments of 1 m/min. every 10 min. for 30 min., and then finally increasing speed by increments of 1 m/min. every 5 min. until the mice were exhausted. The exhaustion was determined by 5 consecutive seconds or 20 overall seconds of failure to exercise (by staying on shock rods at the start of the treadmill). Treadmill training was performed for 2 days before the first week of testing. The training protocol on day 1 consisted of 5 min. at 8 m/min, while day 2 consisted of 5 min. at 8 m/min. followed by 5 min. at 10 m/min.
(§6) In the murine model of SBMA used here (hereafter referred to as hAR100Q mice), which also expresses endogenous mouse AR, approximately 73±14 copies of full-length human AR with 100 CAG repeats (hAR100Q) are driven by the pCAGGS promoter (Chivet, M. et al. 2020, Cells 9, 325). Heterologous expression of hAR100Q results in muscle atrophy, motor deficits, and premature death (Chivet, M. et al. 2020, Cells 9, 325). Symptom onset starts as early as 8 weeks of age and get progressively worse until week 13-14, at which time mice are euthanized because of extreme immobility. In this study, male hAR100Q mice and littermate controls (10 mice in each group) were fed vehicle chow or Compound A-formulated chow at an approximate dose of 15 mg/kg. In-diet dosing was used in lieu of PO dosing due to the fragile nature of this disease model. Compound A-formulated chow was introduced at 5 weeks of age. In addition to weekly weight measurements, mice were evaluated using behavioral assays, including weekly grip strength measurements and forced treadmill tests at 11 weeks of age.

hAR100Q mice = experiment: as above; format: in vivo, mouse
Description: as §1, §2, §3, §4, §5, §6

## CC(C)N(CC1CCN(c2ncc(C(=O)N[C@H]3C(C)(C)[C@H](Oc4ccc(C#N)c(Cl)c4)C3(C)C)cn2)CC1)[C@H]1C[C@H](Oc2ccc3c(c2)C(=O)N(C2CCC(=O)NC2=O)C3=O)C1 (some centres unmarked) [Compound A, N-((1r,3r)-3-(3-chloro-4-cyanophenoxy)-2,2,4,4-tetramethylcyclobutyl)-2-(4-((((1r,3r)-3-((2-(2,6-dioxopiperidin-3-yl)-1,3-dioxoisoindolin-5-yl)oxy)cyclobutyl)(isopropyl)amino)methyl)piperidin-1-yl)pyrimidine-5-carboxamide]
polyQ-AR
  mean Dmax for polyQ-AR in myotube nuclei: approximately 40%
[1]; WT littermates, chow approx. 15 mg/kg, vs vehicle
  all paw grip strength in WT littermates: similar
[1]; WT littermates, week 11, vehicle versus compound chow
  muscle endurance, forced treadmill distance, WT littermates: No differences were observed
[1]; male WT littermates, formulated chow approx. 15 mg/kg
  body weight over time in WT littermates: no impact
hAR100Q mice; hAR100Q mice, formulated chow, birth to euthanasia
  median lifespan: 151 days
hAR100Q mice; hAR100Q mice, week 11, chow approx. 15 mg/kg
  muscle endurance, forced treadmill distance, hAR100Q mice: performed as well as WT littermates
hAR100Q mice; hAR100Q mice, weekly from 7 weeks, chow approx. 15 mg/kg
  all paw grip strength in hAR100Q mice: delayed the decline and magnitude of grip strength decline
hAR100Q mice; male hAR100Q mice, formulated chow approx. 15 mg/kg from 5 weeks of age, vs vehicle
  body weight over time in hAR100Q mice: rescued weight loss
